# Data as given in US20240124510A1, “Cyclic Glycoaminoacid Derivatives” (TFCHEM, priority 2021, published 2024).
# Where “and” joins values, the source holds several entries; their conditions need not be identical. Identical values can stand only once.
# Legend:
# [1] = test system: SOD2 gene expression in aged human fibroblasts; assay: SOD2 gene expression in aged human fibroblasts; format: cell-based; conditions: 6 mg/ml
# [2] = test system: neonatal skin fibroblasts (CCD-27SK); assay: Preservation/protection of neonatal skin fibroblasts under starvation conditions, neutral red uptake assay; format: cell-based, human; conditions: for Variation of viability (stressed cells treated with compound 6 vs stressed cells): 17 mM; for OD 540 nm - mean value (cell viability): starvation medium + 17 mM
# Experimental: The neonatal skin fibroblasts (Cell line: CCD-27SK. ATCC number CRL-1475) were grown with DMEM medium supplemented with Fetal Bovine Serum 10% final, antibiotics (Penicillin/Streptomycin) 1% final and Amphotericin B 0.1% final. Fibroblasts were grown in 75 cm^2 culture flask to 80% confluence in 37° C. and 10% CO2 incubator. The medium was changed every two days by 37° C. preheated fresh medium.
# This medium was composed of 45% subculturing medium without Fetal Bovine Serum mixed with 55% of Phosphate Buffer Saline IX containing EDTA (final concentration of 0.45 mM). This was referred to as serum-free medium or starvation medium.
# Compound 6 (MM=356.3 g/mol) was diluted in starvation medium to 17 mM final and pH was adjusted at 7.4 by addition of NaOH 1N.
# Fibroblast cells were concentrated to 2.10^5 cells/ml and 100 μl of cell suspension was added in wells of a 96-well plate and incubated in 37° C. and 10% CO2 incubator for 4 hours.
# After cell adhesion the medium was changed and plates were incubated (37° C.-10% CO2) to perform the assay as follows: • One plate for each sampling times: D0, D4, D7 days; • Three wells for each condition (triplicate count) added with 120 μl of culture medium (surviving control), starvation medium (serum-free control) or compound 6 solution at 17 mM.
# The neutral red uptake assay was used for the determination of cell viability. This assay is based on the ability of viable cells to incorporate and bind the supravital dye neutral red in its lysosomes. Thus, only the viable cells are dyed. At D4 and D7, the plates were incubated with neutral red solution for 3.5 hours. The cells are subsequently washed, the dye is extracted in each well and the absorbance is read using a spectrophotometer.
# For sampling, 1 mL of DMEM (without phenol red indicator) with neutral red (OD=0.110) was added to the cells for 3.5 hours (37° C. 10% CO2). After incubation. the medium was removed. Two washes with PBS were realized and 1 mL of extraction solution (absolute ethanol 49%, ultrapure water 49%, glacial acetic acid 2%) was added. Plates were placed 15 minutes on rotary shaker in the dark before reading OD at 540 nm.
# The OD540 nm average values were compared and the variation of viability was calculated as follows:
# Variation of viability at Dx=(OD540 nm of tested solution−blank) at Dx/(OD540 nm of stress control−blank) at Dx.
# [3] = test system: Human dermal fibroblasts; assay: Cytotoxicity (LDH release) on dermal fibroblasts in classical condition; format: cell-based; conditions: for Cytotoxicity (LDH release), Mean / Cytotoxicity (LDH release), Values: during 24 h after 11 days of culture, normalized by cell number; for Cytotoxicity (LDH release), Values: individual values
# Experimental: Human dermal fibroblasts were isolated from skin tissue by dermis explants seeding in Petri dishes in DMEM-20% FBS for 3 weeks. Dermal fibroblasts were then seeded in 96-well plates and then incubated in different culture conditions described below.
# Different culture conditions were realized in triplicate at least: • Positive control of cytotoxicity: cells in DMEM 1% FBS medium lysed by 0.2% triton at the end of the culture period • Control: cells in DMEM 1% FBS medium • Test: cells in DMEM 1% FBS medium added with test compound 6 and compound 44 of WO2015/140178.
# Cytotoxicity was assessed by the measurement of the lactate dehydrogenase (LDH) released by damaged cells in the culture medium (using the kit CytoTox-One Non-Radioactive Cytotoxicity Assay, G1780, Promega). Cells were treated with 0.2% of triton at the end of the culture to determine the maximal toxicity response. […]
# The results were normalized by cell number, determined by nuclei staining (with DAPI: 4′,6-Diamidino-2-Phenylindole, Dihydrochloride), and were represented in percentage of the lysis positive control. Compounds presenting a level of cytotoxicity below 20% compared to control were considered as non-toxic.
# Quantity of LDH released by cells was normalized by cell number in each culture condition. Data are represented in percentage of the positive control.
# [4] = test system: human preadipocytes; assay: Proliferation of preadipocytes in classical differentiation conditions (DAPI nuclei staining); format: cell-based; conditions: 2 mg/ml; for Cells number at the end of the culture, DAPI staining, Mean: differentiated control 10 118 AU
# Experimental: (§1) Preadipocytes have been isolated from human female hypodermis (body mass index <30 kg/m2 and <45 years old). Preadipocytes have been cultured for 24 h in 100 μl of DMEM-10% Fetal Bovine Serum (FBS) in 96-well plates. Then cells were treated to induce their differentiation in a classical or an inflammatory environment for 13 days.
# (§2) To induce the preadipocytes differentiation cells were incubated in a proadipogenic cocktail (PAC) including insulin, glucocorticoid, 3-isobutyl-1-methylxanthine (IBMX), and thiazolinedione in DMEM.
# (§3) To induce a fibro-inflammatory environment, cells were treated with an activated human macrophage-conditioned medium (AcMC) prepared in RPMI medium. A treatment with Dexamethasone (DXM) at 100 nM was used as anti-inflammatory response control. At D0: preadipocytes have been treated in the following conditions: • “Undifferentiation”: DMEM+¼ RPMI medium • “Differentiation”: PAC+¼ RPMI medium • “AcMC” i.e. inflammatory condition: PAC+¼ AcMC • “AcMC+DXM”: PAC+[…] AcMC+anti-inflammatory DXM at 100 nM • “AcMc+compounds”: PAC+14 AcMC+compounds to be tested
# All conditions have been performed in triplicate. The medium has been changed every 2 days for 13 days.
# The number of cells was determined for each condition by DAPI nuclei staining (nuclei) and expressed in arbitrary unit.
# [5] = test system: Collagen I fibers; assay: Quantity of Collagen 1 fibers produced by preadipocytes in inflammatory condition (immunofluorescence); format: cell-based, human; conditions: for Collagen I fibers quantity, Mean (%) / Collagen I fibers quantity, Values (%): inflammatory condition, normalized by cells number (Dapi); for Collagen I fibers quantity, Values (%): individual values; for Collagen I fibers quantity compared to the AcMC control condition fixed at 100%: preadipocytes
# Experimental: as §1, §2, §3
# One month after fixation of preadipocytes cultivated in pro-inflammatory environment, cells were incubated with 3% Bovine Serum Albumin (BSA) for 30 min in order to block the non-specific sites, then with primary antibody anti-collagen 1 (Novusbio, NB600-408) over-night. After washes with PBS, cells were incubated for 30 min with 3% BSA and then with the secondary antibodies (Goat anti-rabbit alexa-fluor 488, ThermoFisher, A11008) and DAPI (for nuclei staining) for 1 h. After several washes, the acquisition and the quantification were performed with a fluorescent video-microscope. Briefly, the quantification was based on the detection and quantification of cell nuclei stained with DAPI, and the detection of collagen 1 staining. Collagen 1 fibers were detected and measured for their length, thickness and intensity. A Collagen 1 fibers quantity was calculated (Quantity=length*thickness*fluorescence intensity) and normalized by cells number (DAPI staining).
# Collagen I fibers (fibrillar collagen I) quantity was quantified and the data were normalized by cell number (DAPI staining, quantification of nuclei number). Data are represented in percentage of proinflammatory control conditions (AcMC condition).
compound,measurement,setting,value
N[C@H]1CCCN(CC(F)(F)[C@]2(O)O[C@H](CO)[C@H](O)[C@H](O)[C@H]2O)C1=O [Compound 6],increased SOD2 gene expression compared to the control,[1],204%
same,Variation of viability (stressed cells treated with compound 6 vs stressed cells),[2]; D 4,2.3 and 2.32
same,OD 540 nm - mean value (cell viability),[2]; D 4,0.274
same,Variation of viability (stressed cells treated with compound 6 vs stressed cells),[2]; D 7,3.4 and 3.39
same,OD 540 nm - mean value (cell viability),[2]; D 7,0.224
same,"Cytotoxicity (LDH release), Mean",[3]; 0.1 mg/ml,6.7 percentage of positive control
same,"Cytotoxicity (LDH release), Values",[3]; 0.1 mg/ml,5.9 percentage of positive control and 4.8 percentage of positive control and 6.5 percentage of positive control and 9.8 percentage of positive control
same,"Cytotoxicity (LDH release), Mean",[3]; 0.5 mg/ml,5.6 percentage of positive control
same,"Cytotoxicity (LDH release), Values",[3]; 0.5 mg/ml,7.1 percentage of positive control and 6.6 percentage of positive control and 3.1 percentage of positive control and 5.7 percentage of positive control
same,Toxicity on dermal fibroblasts,"[3]; 2 mg/ml, 0.5 mg/ml and 0.1 mg/ml",No toxicity
same,"Cytotoxicity (LDH release), Mean",[3]; 2 mg/ml,5.1 percentage of positive control
same,"Cytotoxicity (LDH release), Values",[3]; 2 mg/ml,4.2 percentage of positive control and 5.1 percentage of positive control and 5.3 percentage of positive control and 6.0 percentage of positive control
same,Protective effect on dermal fibroblasts under classical condition,[3]; all concentrations,strong protective effect
same,"Cells number at the end of the culture, DAPI staining, Mean",[4],13197 AU
same,"Cells number at the end of the culture, DAPI staining, Mean",[4]; listed as compound 6,13 197 AU
same,"Cells number at the end of the culture (DAPI staining), Values",[4]; single replicates,13454 AU and 12839 AU and 13298 AU
same,"Collagen I fibers quantity, Mean (%)",[5]; 1 mg/ml,154 % of AcMC condition
same,"Collagen I fibers quantity, Values (%)",[5]; 1 mg/ml,136.7 % of AcMC condition and 160.5 % of AcMC condition and 165.3 % of AcMC condition
same,"Collagen I fibers quantity, Mean (%)",[5]; 2 mg/ml,213 % of AcMC condition
same,"Collagen I fibers quantity, Values (%)",[5]; 2 mg/ml,193.5 % of AcMC condition and 230.7 % of AcMC condition and 213.7 % of AcMC condition
same,Collagen I fibers quantity compared to the AcMC control condition fixed at 100%,[5]; 1 mg/ml,154%
same,Collagen I fibers quantity compared to the AcMC control condition fixed at 100%,[5]; 2 mg/ml,213%
